Results as given in US20110230430A1, “SAPONIN EXTRACT FROM SAPONARIA SPP. AND USES THEREOF” (NATIONAL RESEARCH COUNCIL OF CANADA, priority 2008, published 2011).

Legend:
Format in all cases: cell-based, human
MDA-MB-231 cells = experiment: APO LOGIX Carboxyfluorescein Caspase 9 Detection Kit in MDA-MB-231 cells
Source text: In a still further apoptotic assay, apoptosis can be measured by the APO LOGIX™ Carboxyfluorescein Caspase 9 Detection Kit. The APO LOGIX™ Carboxyfluorescein Caspase 9 Detection Kit uses a cell permeable carboxyfluorescein labeled caspase inhibitor, which binds covalently to active caspases 9. Caspase 9 is involved in initiating apoptosis through the mitochondrial pathway (Budihardjo I., et al. 1999). Cells that contain bound inhibitor are detected by an increase in fluorescence when samples are analyzed by flow cytometry.
The MDA-MB-231 cell line (ATCC #HTB-26) was derived from the pleural effusion of a patient with a breast adenocarcinoma (Cailleau et al., 1974). The cells were maintained in RPMI 1640 (Gibco) supplemented with 10% fetal bovine serum (Camera), 100 U/mL penicillin, 100 μg/mL streptomycin and 0.25 μg/mL amphotericin B. Cultures were maintained in medium at 37° C. with 5% CO2 and 100% relative humidity.
MDA-MB-231 cells were treated with PC1448 and assayed for apoptosis as previously described for PC-3 cells.

HT-29 cancer cells = experiment: Dual Sensor: MitoCasp Assay in HT-29 colon cancer cells; conditions: HT-29 cells, 2.5 μM, 5.0 μM and 10 μM, 23 hours
Source text: Techniques to assay enzymatic and signaling processes involved in apoptosis have been developed as standard protocols. One example of an early step in apoptosis, is the release of cytochrome C from mitochondria and the activation of caspase-3. Induction of the caspases (a series of cytosolic proteases) is one of the most consistently observed features of apoptosis. Caspases are a family of proteolytic enzymes that transmit the apoptotic signal using a proteolytic cascade. […] Caspases 3 and 7 are effector caspases, central to the caspase cascade pathways. In particular, caspase-3 plays a central role in the process. When caspases are activated, they cleave target proteins; one of the most important of these is poly-(ADP-ribose) polymerase (PARP), which is a protein located in the nucleus. Therefore, assays detecting release of cytochrome C, detecting caspase-3 activity and detecting PARP degradation are effective determinants of apoptosis. The loss of mitochondrial membrane potential is known to occur during apoptosis. […] Collapse of the mitochondrial membrane potential during apoptosis prevents the dye from accumulating in the mitochondria resulting in a decrease in fluorescent intensity that can be detected with flow cytometry. […] In this assay, caspase 3/7 activity is detected using a cell permeable carboxyfluorescein labeled caspase inhibitor, which binds covalently to active caspases 3 and 7. Cells that contain bound inhibitor are detected by an increase in fluorescence when samples are analyzed by flow cytometry.
Following PC1448 treatment, adherent and non-adherent cells were harvested and washed with cold PBS. […] Samples were analyzed by flow cytometry measuring the fluorescence emissions from 515 nm to 530 nm for caspase detection, and 574 nm to 600 nm for mitochondrial membrane potential detection. […]
HT-29 cancer cells were treated with 2.5 μM, 5.0 μM and 10 μM of PC1526 or PC1448 for 23 hours, or with 2.5 μM, 5.0 μM and 10 μM PC1422 for 24 hours and assessed using the Dual Sensor: MitoCasp™ Assay. […]

MCF-7 cells = experiment: Dual Sensor: MitoCasp Assay in MCF-7 breast cancer cells; conditions: 5 and 10 μM, 24 hours
Source text: Techniques to assay enzymatic and signaling processes involved in apoptosis have been developed as standard protocols. One example of an early step in apoptosis, is the release of cytochrome C from mitochondria and the activation of caspase-3. Induction of the caspases (a series of cytosolic proteases) is one of the most consistently observed features of apoptosis. Caspases are a family of proteolytic enzymes that transmit the apoptotic signal using a proteolytic cascade. […] Caspases 3 and 7 are effector caspases, central to the caspase cascade pathways. In particular, caspase-3 plays a central role in the process. […] Collapse of the mitochondrial membrane potential during apoptosis prevents the dye from accumulating in the mitochondria resulting in a decrease in fluorescent intensity that can be detected with flow cytometry. […] In this assay, caspase 3/7 activity is detected using a cell permeable carboxyfluorescein labeled caspase inhibitor, which binds covalently to active caspases 3 and 7. Cells that contain bound inhibitor are detected by an increase in fluorescence when samples are analyzed by flow cytometry. […]
MCF-7 cells were treated with 5.0 μM and 10 μM of saponins PC1526, PC1464 and PC1422 for 24 hours and assessed using Dual Sensor: MitoCasp™ Assay.

| Substance | Caspase 9 positive cells (MDA-MB-231 cells; 14 μM PC1448, 10 hr) [%] | Caspase 9 positive cells (MDA-MB-231 cells; 14 μM PC1448, 15 hr) [%] | Caspase 9 positive cells (MDA-MB-231 cells; 14 μM PC1448, 20 hr) [%] | Increase in cells with caspase 9 activity vs untreated (maximum effect) (MDA-MB-231 cells; 14 μM PC1448, 40 hours) [fold] | Caspase 9 positive cells (MDA-MB-231 cells; 14 μM PC1448, 40 hr) [%] | Caspase 3/7 activity compared to untreated cells / induction of apoptosis (in words, FIG. 5) (HT-29 cancer cells) | Induction of apoptosis (in words, FIG. 16) (MCF-7 cells) |
| --- | --- | --- | --- | --- | --- | --- | --- |
| Segetoside H [PC1448] | 23.2 | 29.8 | 30.5 | 2.5 | 39.4 | increase in caspase 3/7 activity | – |
| Segetoside I [PC1464] | – | – | – | – | – | – | do not induce apoptosis |
